Data set [1] deals with XBP-1s. Briefly: Western immunoblot of XBP-1s, HT1080 cells. Type of data set: cell-based, human. Here is the method:
Cells were harvested, lysed, and analyzed by Western blot using anti-XBP-1 antisera (lower panel) or anti-HIF-1 antisera (top panel) to confirm hypoxia exposure.
Cells (2×10^6) were cultured in 10-cm dishes, collected using a cell scraper at 4° C., and lysed by addition of 150 μl cell lysis buffer [50 mM Tris pH 7.4, 150 mM NaCl, 10% glycerol, 0.5% Triton X-100. 0.5% NP-40, 2 mM Na3VO4, 20 mM beta-glycerophosphate, 10 mM NaF, 1 mM DTT, 1 mM PMSF). Lysates were centrifuged for 5 min at 10,000×g, and proteins (˜40 μg) were resolved by SDS-PAGE followed by semi-dry transfer to nitrocellulose membranes. Membranes were blocked in TBS-5% milk supplemented with 0.1% Tween-20. […] After washing in block solution, immunoreactive material was detected by enhanced chemiluminescence (SuperSignal West Dura Extended, Pierce, Inc., Rockville, Ill.).
A. XBP-luciferase reporter construct. […] After 24 hours, luciferase activity was analyzed in an automated plate reader. For each cell line, values are expressed as the percent inhibition of the median for Tm/Tg-treated wells, corrected for background. […] Values are expressed as the fold increases over uninduced levels. […] Cells were harvested, lysed, and analyzed by immunoblotting with antisera specific for HIF-1α (top), XBP-1s (middle) or actin (bottom). […] Total RNA was analyzed by Northern blotting using radiolabeled probes specific for P58^IPK or DER-1. […]
(In general: A western blot detects proteins with antibodies after separation by electrophoresis.)

A short description of data set [2]: Blood chemistry, complete blood count and histopathology. The format is in vivo, mice. Here is the method: Complete blood counts (CBC's) and clinical chemistry panels were performed on blood obtained by cardiac puncture after euthanasia with CO2 Gross necropsies were performed, all major viscera were harvested, fixed in 10% buffered neutral formalin, routinely processed for paraffin embedding, and stained with hematoxylin and eosin (H&E). Sections were analyzed by a board-certified veterinary pathologist (DMB). […]

In data set [3] the test system is HT1080 fibrosarcoma. Briefly: Cell proliferation assay, HT1080. The format is cell-based, human. As to conditions: normal conditions; same concentrations. As to the method: A. Effect of irestatin 9389 on PERK and ATF6 pathways. HT1080 cells were treated with vehicle alone (lanes 1-4) or 2.5 μM irestatin 9389 (lanes 5-8) and cultured under aerobic conditions for 18 hours (N) or shifted to hypoxia for the indicated times. Protein lysates were analyzed by Western blot analysis using antisera specific for ATF6 (top), CHOP/GADD153 (middle) or actin (bottom). Arrow indicates the cleaved, transcriptionally active form of ATF6. B. Cleavage of caspase-3 in irestatin-treated cells under hypoxia. HT1080 cells were cultured in normoxia (N) or under hypoxia for 36 hours (H 36) in absence or presence of irestatin 9389 (2.5 μM). Arrows indicate proteolytically cleaved caspase-3. C. Colony formation assay. HT1080 cells were treated as in B under normoxia (N) or hypoxia for 48 hours (H 48). Cells were harvested, counted, and allowed to grow under normal culture conditions for 11-12 days. Colonies were visualized with crystal violet staining. D. Quantification of clonogenic survival assay. Values represent the mean+/−SEM from at least 4 independent experiments. E. TUNEL staining of cells treated as in C. F. Quantification of TUNEL-positive cells. Values represent the mean+/− SEM from at least 3 experiments. […] Cells were harvested at the indicated times and counted by hemocytometer. Values represent the mean calculated from triplicate experiments+/−SEM.

Where [4] appears, read: irestatin-treated nude mice, terminal cardiac blood draw, mean.

Each structure is given as a SMILES string.

As to `Cc1csc(NC(=O)CSc2nc3c(c(C(F)(F)F)c2C#N)CCC3)n1` [Compound 9389], the “levels of XBP-1s under hypoxia” value in data set [1] (2 μM, 24 hours of hypoxia) is given as “decreased levels of XBP-1s”. Also, the “accumulation of XBP-1s following treatment with Tm” value in data set [1] (irestatins 2 μM, Tm (4 μg/ml) 20 hours) was “blocked the accumulation of XBP-1s”. In addition, the “tolerability (kidney, liver, bone marrow function)” value in data set [2] (3-4 doses of 50 mg/kg every other day) is “well tolerated”. In addition, in data set [2] (irestatin- and vehicle-treated animals), the “fasting blood glucose levels versus vehicle” value is given as “no significant difference in fasting blood glucose levels”. In addition, in data set [2] (setting [4]), the ALT turned out to be 29.4 IU/L, the AST was found to be 117.775 IU/L, the “Anion Gap” value worked out at 17.975 mM and the “Carbon Dioxide” value is recorded as 25.075 mM. In data set [2] (setting [4]), the Chloride was 116.75 mM, the Cholesterol is listed as 102 mg/dL, the Glucose is 124.5 mg/dL and the HCT came to 47%. Further, in data set [2] (setting [4]), the HGB is 14.625 gm/dL, the Na/K Ratio was 20.3, the Platelets is recorded as 805.5 K/uL and the Potassium came out at 7.5175 mM. In data set [2] (setting [4]), the RBC is 10.375 M/uL, the Sodium is given as 152.25 mM, the “Total Bilirubin” value is given as 0.3 mg/dL and the WBC is recorded as 5.19 K/uL. Further, the “histopathological analysis of all major organs” value in data set [2] (three doses, 50 mg/kg) is “no significant differences between the vehicle and irestatin treatment groups”. The “growth rate of HT1080 cells” value in data set [3] is listed as “negligible effect on the growth rate”.
